Experimental data published in ChEMBL document CHEMBL1141598, “Optimization of 1H-tetrazole-1-alkanenitriles as potent orally bioavailable growth hormone secretagogues” (Bioorg Med Chem Lett, 2008).
pEC50, pIC50, pKi: −log10 of the molar value.

Columns and labels:
Rattus norvegicus = test: Increase in plasma GH level in acute anesthetized iv dosed Wistar rat model; type: functional
[1] = target: T1, Growth hormone secretagogue receptor type 1 (Homo sapiens, UniProt Q92847); test: Agonist activity at human GHS receptor expressed in H4 glioma cells; type: cell-based
[2] = target: T1, Growth hormone secretagogue receptor type 1; test: Agonist activity at human GHS receptor expressed in H4 glioma cells assessed as intracellular calcium concentration by FLIPR assay; type: functional, cell-based
Cytochrome P450 1A2 = target: T2, Cytochrome P450 1A2 (Homo sapiens, UniProt P05177); test: Inhibition of CYP1A2; type: ADME
T2 sequence (P05177 whole entry): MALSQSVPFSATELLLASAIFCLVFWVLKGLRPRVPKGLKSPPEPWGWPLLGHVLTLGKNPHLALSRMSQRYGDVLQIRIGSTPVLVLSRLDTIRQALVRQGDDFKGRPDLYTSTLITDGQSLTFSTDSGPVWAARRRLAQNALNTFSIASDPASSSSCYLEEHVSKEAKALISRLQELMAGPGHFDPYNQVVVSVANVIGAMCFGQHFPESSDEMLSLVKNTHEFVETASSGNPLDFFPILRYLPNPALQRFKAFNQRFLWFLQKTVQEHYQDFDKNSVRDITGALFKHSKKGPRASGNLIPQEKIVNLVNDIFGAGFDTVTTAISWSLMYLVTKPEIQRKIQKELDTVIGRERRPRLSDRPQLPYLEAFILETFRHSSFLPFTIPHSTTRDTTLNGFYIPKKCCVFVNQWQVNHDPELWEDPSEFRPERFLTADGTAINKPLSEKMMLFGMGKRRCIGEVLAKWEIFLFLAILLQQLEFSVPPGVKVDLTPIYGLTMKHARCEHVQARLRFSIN

Cytochrome P450 2C9 = Cytochrome P450 2C9 (Homo sapiens, UniProt P11712); test: Inhibition of CYP2C9; type: ADME
Cytochrome P450 2C19 = Cytochrome P450 2C19 (Homo sapiens, UniProt P33261); test: Inhibition of CYP2C19; type: ADME
Cytochrome P450 2D6 = Cytochrome P450 2D6 (Homo sapiens, UniProt P10635); test: Inhibition of CYP2D6; type: ADME
Cytochrome P450 3A4 [3] = target: T3, Cytochrome P450 3A4 (Homo sapiens, UniProt P08684); test: Inhibition of CYP3A4 using 7-benzyloxy-4-trifluoromethylcoumarin as a substrate; type: ADME
Cytochrome P450 3A4 [4] = target: T3, Cytochrome P450 3A4; test: Inhibition of CYP3A4 using 7-benzyloxyresorufin as a substrate; type: ADME
[5] = Oral bioavailability in rat; type: ADME, organism-based; conditions: in vivo
[6] = Oral bioavailability in dog; type: ADME, organism-based, Canis lupus familiaris; conditions: in vivo

T3 sequence (P08684 whole entry): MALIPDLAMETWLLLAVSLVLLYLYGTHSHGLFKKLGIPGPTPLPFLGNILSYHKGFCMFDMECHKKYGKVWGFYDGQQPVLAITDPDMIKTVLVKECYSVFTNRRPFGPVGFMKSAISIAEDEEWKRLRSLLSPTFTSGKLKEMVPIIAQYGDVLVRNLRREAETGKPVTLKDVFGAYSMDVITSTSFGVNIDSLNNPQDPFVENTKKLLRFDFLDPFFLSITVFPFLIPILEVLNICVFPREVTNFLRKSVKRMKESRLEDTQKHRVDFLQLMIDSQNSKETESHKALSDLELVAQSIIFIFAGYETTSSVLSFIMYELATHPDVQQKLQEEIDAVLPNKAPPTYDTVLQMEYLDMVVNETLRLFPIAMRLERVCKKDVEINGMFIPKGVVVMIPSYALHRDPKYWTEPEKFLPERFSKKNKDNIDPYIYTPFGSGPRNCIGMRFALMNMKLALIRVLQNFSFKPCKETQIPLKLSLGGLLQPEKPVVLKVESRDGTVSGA
T1 sequence (Q92847 whole entry): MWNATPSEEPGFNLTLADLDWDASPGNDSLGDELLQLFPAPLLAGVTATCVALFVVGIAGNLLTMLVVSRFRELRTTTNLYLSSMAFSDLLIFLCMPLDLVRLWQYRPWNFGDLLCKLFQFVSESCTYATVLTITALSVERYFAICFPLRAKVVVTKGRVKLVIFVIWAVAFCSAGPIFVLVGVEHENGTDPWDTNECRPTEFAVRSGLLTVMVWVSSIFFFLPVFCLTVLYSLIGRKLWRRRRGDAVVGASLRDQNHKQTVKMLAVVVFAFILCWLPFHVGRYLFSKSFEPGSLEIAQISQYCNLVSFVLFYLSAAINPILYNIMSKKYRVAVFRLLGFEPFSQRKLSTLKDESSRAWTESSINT
Chain of Cytochrome P450 2D6 (P10635 whole entry): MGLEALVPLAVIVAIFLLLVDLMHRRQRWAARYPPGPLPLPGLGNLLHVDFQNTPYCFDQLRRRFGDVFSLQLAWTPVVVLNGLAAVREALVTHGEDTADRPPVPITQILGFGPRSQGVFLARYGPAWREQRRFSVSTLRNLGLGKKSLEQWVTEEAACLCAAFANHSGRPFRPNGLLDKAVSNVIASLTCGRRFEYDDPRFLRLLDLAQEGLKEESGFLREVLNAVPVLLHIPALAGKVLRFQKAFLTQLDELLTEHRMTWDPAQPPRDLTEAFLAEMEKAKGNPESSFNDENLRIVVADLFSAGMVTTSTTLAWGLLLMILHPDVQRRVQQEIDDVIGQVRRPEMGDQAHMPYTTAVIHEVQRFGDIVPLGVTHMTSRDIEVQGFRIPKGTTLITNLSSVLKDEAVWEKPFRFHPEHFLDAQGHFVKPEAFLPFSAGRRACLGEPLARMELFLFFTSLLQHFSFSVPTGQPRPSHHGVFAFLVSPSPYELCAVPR
Chain of Cytochrome P450 2C9 (P11712 whole entry): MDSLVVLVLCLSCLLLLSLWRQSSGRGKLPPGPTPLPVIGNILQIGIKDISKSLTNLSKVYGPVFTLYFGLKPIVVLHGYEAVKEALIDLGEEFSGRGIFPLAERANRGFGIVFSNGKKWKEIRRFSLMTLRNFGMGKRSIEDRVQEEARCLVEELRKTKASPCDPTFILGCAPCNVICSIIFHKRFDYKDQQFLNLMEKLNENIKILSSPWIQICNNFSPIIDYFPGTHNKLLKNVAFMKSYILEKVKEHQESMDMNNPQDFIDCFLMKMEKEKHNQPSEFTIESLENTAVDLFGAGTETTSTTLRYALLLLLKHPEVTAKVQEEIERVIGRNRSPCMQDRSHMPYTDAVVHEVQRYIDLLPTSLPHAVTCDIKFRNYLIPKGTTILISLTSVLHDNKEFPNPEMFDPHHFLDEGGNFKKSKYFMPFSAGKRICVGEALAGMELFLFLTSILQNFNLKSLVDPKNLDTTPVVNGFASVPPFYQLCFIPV
Chain of Cytochrome P450 2C19 (P33261 whole entry): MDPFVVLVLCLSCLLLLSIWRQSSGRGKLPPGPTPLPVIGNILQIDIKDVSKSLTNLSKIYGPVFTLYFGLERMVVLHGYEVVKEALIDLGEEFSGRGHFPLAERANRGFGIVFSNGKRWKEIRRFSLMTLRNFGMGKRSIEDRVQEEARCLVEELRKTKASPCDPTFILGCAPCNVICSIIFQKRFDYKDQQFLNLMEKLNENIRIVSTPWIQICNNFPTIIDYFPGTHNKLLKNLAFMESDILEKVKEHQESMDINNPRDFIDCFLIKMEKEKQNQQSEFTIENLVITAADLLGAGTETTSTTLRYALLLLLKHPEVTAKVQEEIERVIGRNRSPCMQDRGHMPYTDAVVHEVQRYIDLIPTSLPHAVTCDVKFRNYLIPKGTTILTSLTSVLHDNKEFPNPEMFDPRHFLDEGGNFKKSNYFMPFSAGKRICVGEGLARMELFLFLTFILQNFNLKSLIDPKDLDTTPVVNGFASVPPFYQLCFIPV

Row | Structure (SMILES) | pKi [1] | pEC50 [2] | other results
1 | CC(C)(N)C(=O)N[C@H](COCc1ccccc1)c1nnnn1CCC#N | – | – | ED250 (Rattus norvegicus): 4.8 µmol/kg
2 | CC(C)(N)C(=O)N[C@H](COCc1ccccc1)c1nnnn1[C@H](CC#N)COc1ccccc1O | 8.24 | 9.52 | ED250 (Rattus norvegicus): <0.15 µmol/kg; pIC50 (Cytochrome P450 1A2): < 4.18; pIC50 (Cytochrome P450 2C9): < 4.18; pIC50 (Cytochrome P450 2C19): 4.38; pIC50 (Cytochrome P450 2D6): 5.29; pIC50 (Cytochrome P450 3A4 [3]): 5.01; pIC50 (Cytochrome P450 3A4 [4]): 5.26
3 | CC(C)(N)C(=O)N[C@H](COCc1ccccc1)c1nnnn1[C@@H](CC#N)COc1ccccn1 | 6.30 | 7.72 | –
4 | CC(C)(N)C(=O)N[C@H](COCc1ccccc1)c1nnnn1[C@H](CC#N)COc1ccccn1 | 7.40 | 9.40 | ED250 (Rattus norvegicus): 0.33 µmol/kg; bioavailability [5]: 24%; bioavailability [6]: 55%; pIC50 (Cytochrome P450 1A2): < 4.00; pIC50 (Cytochrome P450 2C9): < 4.00; pIC50 (Cytochrome P450 2C19): 4.48; pIC50 (Cytochrome P450 2D6): < 4.00; pIC50 (Cytochrome P450 3A4 [3]): 4.23; pIC50 (Cytochrome P450 3A4 [4]): 4.96
5 | CC(C)(N)C(=O)N[C@H](COCc1ccccc1)c1nnnn1[C@@H](CC#N)COc1ccccc1 | 6.71 | 7.72 | –
6 | CC(C)(N)C(=O)N[C@H](COCc1ccccc1)c1nnnn1[C@H](CC#N)COc1ccccc1 | 8.12 | 9.40 | ED250 (Rattus norvegicus): 0.87 µmol/kg
7 | CC(C)(N)C(=O)N[C@H](COCc1ccccc1)c1nnnn1[C@@H](CC#N)COc1ccccc1O | 6.62 | 7.64 | –
8 | CC(C)(N)C(=O)N[C@H](COCc1ccccc1)c1nnnn1CCC(C#N)c1ccccc1 (mixture of isomers) | 6.21 | 7.57 | –
9 | CC(C)(N)C(=O)N[C@H](COCc1ccccc1)c1nnnn1C(CC#N)COc1ccccc1F (single isomer, unassigned; diastereomer 1) | 7.74 | 9.22 | –
10 | CC(C)(N)C(=O)N[C@H](COCc1ccccc1)c1nnnn1C(/C=C/c1ccccc1)CC#N (single isomer, unassigned; diastereomer 1) | 7.92 | 9.30 | ED250 (Rattus norvegicus): >2 µmol/kg
11 | CC(C)(N)C(=O)N[C@H](COCc1ccccc1)c1nnnn1C(CC#N)COc1ccccc1F (single isomer, unassigned; diastereomer 2) | 6.16 | 7.19 | –
12 | CC(C)(N)C(=O)N[C@H](COCc1ccccc1)c1nnnn1C(/C=C/c1ccccc1)CC#N (single isomer, unassigned; diastereomer 2) | 6.13 | 7.21 | –

More lines, main results first:

Row | pKi [1] | pEC50 [2] | Structure (SMILES) | other results
13 | < 5.30 | 6.52 | CC(C)(N)C(=O)N[C@H](COCc1ccccc1)c1nnn(CCC(C#N)c2ccccc2)n1 (mixture of isomers) | –
14 | 6.53 | 7.66 | CC(C)(N)C(=O)N[C@H](COCc1ccccc1)c1nnnn1CC(C#N)Cc1ccccc1 (mixture of isomers) | –
15 | < 5.30 | 5.61 | CC(C)(N)C(=O)N[C@H](COCc1ccccc1)c1nnn(CC(C#N)Cc2ccccc2)n1 (mixture of isomers) | –
16 | 6.34 | 7.72 | CC(C)(N)C(=O)N[C@H](COCc1ccccc1)c1nnn(C(/C=C/c2ccccc2)CC#N)n1 (single isomer, unassigned; diastereomer 1) | –
17 | 5.59 | 6.82 | CC(C)(N)C(=O)N[C@H](COCc1ccccc1)c1nnn(C(CC#N)CCc2ccccc2)n1 (single isomer, unassigned; diastereomer 1) | –
18 | 7.20 | 9.10 | CC(C)(N)C(=O)N[C@H](COCc1ccccc1)c1nnnn1C(CC#N)CCc1ccccc1 (single isomer, unassigned; diastereomer 1) | ED250 (Rattus norvegicus): 1.7 µmol/kg
19 | 5.60 | 6.69 | CC(C)(N)C(=O)N[C@H](COCc1ccccc1)c1nnn(C(/C=C/c2ccccc2)CC#N)n1 (single isomer, unassigned; diastereomer 2) | –
20 | 5.40 | 6.61 | CC(C)(N)C(=O)N[C@H](COCc1ccccc1)c1nnn(C(CC#N)CCc2ccccc2)n1 (single isomer, unassigned; diastereomer 2) | –
21 | 5.86 | 6.86 | CC(C)(N)C(=O)N[C@H](COCc1ccccc1)c1nnnn1C(CC#N)CCc1ccccc1 (single isomer, unassigned; diastereomer 2) | –
